{"source": "paper PMC10714400", "about": "“Antimicrobial Peptide–Peptoid Hybrids with and without Membrane Disruption” (ACS Infectious Diseases, 2023)", "key": {"[1]": {"test_system": "human red blood cells (hRBC)", "test": "Minimum hemolytic concentration (MHC)", "assay_type": "cell-based", "excerpt": "We also measured minimal hemolysis concentrations (MHC) on human red blood cells by serial 2-fold dilution as an indication of toxicity against eukaryotic cells (Table 1)."}, "[2]": {"test_system": "S. aureus Newman", "method_in_brief": "(§1)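 MIC read visually after MTT staining: lowest compound concentration preventing visible growth (yellow wells). Inoculum ~5 × 10^5 CFU per well in MH broth; static incubation at 37 °C for ca. 18 h.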"}, "[3]": {"test_system": "S. maltophilia", "method_in_brief": "as §1"}, "[4]": {"test_system": "P. aeruginosa PA14", "method_in_brief": "as §1"}, "[5]": {"test_system": "S. epidermis", "method_in_brief": "as §1"}, "[6]": {"test_system": "B. cenocepacia", "method_in_brief": "as §1"}, "[7]": {"test_system": "K. pneumoniae OXA-48", "method_in_brief": "as §1"}, "[8]": {"test_system": "E. cloacae", "method_in_brief": "as §1"}, "[9]": {"test_system": "K. pneumoniae NCTC418", "method_in_brief": "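MTT added (20–30 min, room temperature); MIC read by eye as lowest concentration inhibiting visible growth (yellow). Polymyxin B positive control from 16 μg/mL.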"}, "[10]": {"test_system": "PA14 2P4 (pmrB)", "method_in_brief": "as §1"}, "[11]": {"test_system": "PA14 4.18 (pmrB)", "method_in_brief": "as §1"}, "[12]": {"test_system": "ZEM9A (clinical MDR P. aeruginosa isolate)", "conditions": "CSV; […] MH at pH 8.5", "method_in_brief": "as §1"}}, "note": "Like-named read-outs stand apart in the source and are kept apart here. Where a SMILES comes first, the peptide text is derived from it. [ ]: non-standard residue; d: D form."}
{"smiles": "CC(C)C[C@H](NC(=O)[C@H](CC(C)C)NC(=O)[C@H](CC(C)C)NC(=O)[C@@H](CCCCN)NC(=O)[C@H](CC(C)C)NC(=O)[C@H](CC(C)C)NC(=O)[C@@H](CCCCN)NC(=O)[C@H](CC(C)C)NC(=O)[C@H](CC(C)C)NC(=O)[C@@H](CCCCN)NC(=O)[C@H](N)CCCCN)C(N)=O", "note": "[ln69, kkLLkLLkLLL, reference compound] (H-[dK][dK]LL[dK]LL[dK]LLL-NH2)", "values": [{"measurement": "MHC", "setting": "[1]", "value": 1000, "unit": "µg/mL"}, {"measurement": "MIC S. aureus Newman, […] MH at pH 8.5", "setting": "[2]; CSV, […] MH at pH 8.5", "value": 3, "unit": "ug/mL"}, {"measurement": "MIC S. aureus Newman, full MH at pH 7.4", "setting": "[2]; CSV, full MH at pH 7.4", "value": 8, "unit": "ug/mL"}, {"measurement": "MIC S. aureus Newman", "setting": "[2]; MH pH 7.4, 16–20 h at 37 °C", "value": 8, "unit": "µg/mL"}, {"measurement": "MIC S. aureus Newman", "setting": "[2]; Table S3, […] MH at pH 8.5", "value": "2 to 4", "unit": "µg/mL"}, {"measurement": "MIC S. maltophilia, […] MH at pH 8.5", "setting": "[3]; CSV, […] MH at pH 8.5", "value": 2, "unit": "ug/mL"}, {"measurement": "MIC S. maltophilia, full MH at pH 7.4", "setting": "[3]; CSV, full MH at pH 7.4", "value": 2, "unit": "ug/mL"}, {"measurement": "MIC S. maltophilia", "setting": "[3]; MH pH 7.4, 16–20 h at 37 °C", "value": 2, "unit": "µg/mL"}, {"measurement": "MIC S. maltophilia", "setting": "[3]; Table S3, […] MH at pH 8.5", "value": 2, "unit": "µg/mL"}, {"measurement": "MIC P. aeruginosa PA14, […] MH at pH 8.5", "setting": "[4]; CSV, […] MH at pH 8.5", "value": 3, "unit": "ug/mL"}, {"measurement": "MIC P. aeruginosa PA14, full MH at pH 7.4", "setting": "[4]; CSV, full MH at pH 7.4", "value": 2, "unit": "ug/mL"}, {"measurement": "MIC P. aeruginosa PA14", "setting": "[4]; MH pH 7.4, 16–20 h at 37 °C", "value": 2, "unit": "µg/mL"}, {"measurement": "MIC P. aeruginosa PA14", "setting": "[4]; Table S3, […] MH at pH 8.5, 16-20 hours at 37 °C", "value": "2 to 4", "unit": "µg/mL"}, {"measurement": "MIC S. epidermis, […] MH at pH 8.5", "setting": "[5]; CSV, […] MH at pH 8.5", "value": 1, "unit": "ug/mL"}, {"measurement": "MIC S. epidermis, full MH at pH 7.4", "setting": "[5]; CSV, full MH at pH 7.4", "value": 3, "unit": "ug/mL"}, {"measurement": "MIC S. epidermis", "setting": "[5]; MH pH 7.4, 16–20 h at 37 °C", "value": "2 to 4", "unit": "µg/mL"}, {"measurement": "MIC S. epidermis", "setting": "[5]; Table S3, […] MH at pH 8.5", "value": 1, "unit": "µg/mL"}, {"measurement": "MIC B. cenocepacia, full MH at pH 7.4", "setting": "[6]; CSV, full MH at pH 7.4", "value": ">32", "unit": "ug/mL"}, {"measurement": "MIC B. cenocepacia", "setting": "[6]; MH pH 7.4, 16–20 h at 37 °C", "value": ">32", "unit": "µg/mL"}, {"measurement": "MIC K. pneumoniae OXA-48, […] MH at pH 8.5", "setting": "[7]; CSV, […] MH at pH 8.5", "value": 2, "unit": "ug/mL"}, {"measurement": "MIC K. pneumoniae OXA-48, full MH at pH 7.4", "setting": "[7]; CSV, full MH at pH 7.4", "value": 4, "unit": "ug/mL"}, {"measurement": "MIC K. pneumoniae OXA-48", "setting": "[7]; MH pH 7.4, 16–20 h at 37 °C", "value": 4, "unit": "µg/mL"}, {"measurement": "MIC K. pneumoniae OXA-48", "setting": "[7]; Table S3, […] MH at pH 8.5", "value": 2, "unit": "µg/mL"}, {"measurement": "MIC E. cloacae, […] MH at pH 8.5", "setting": "[8]; CSV, […] MH at pH 8.5", "value": 2, "unit": "ug/mL"}, {"measurement": "MIC E. cloacae, full MH at pH 7.4", "setting": "[8]; CSV, full MH at pH 7.4", "value": 4, "unit": "ug/mL"}, {"measurement": "MIC E. cloacae", "setting": "[8]; MH pH 7.4, 16–20 h at 37 °C", "value": 4, "unit": "µg/mL"}, {"measurement": "MIC E. cloacae", "setting": "[8]; Table S3, […] MH at pH 8.5", "value": 2, "unit": "µg/mL"}, {"measurement": "MIC K. pneumoniae NCTC418, […] MH at pH 7.4", "setting": "[9]; CSV, […] MH at pH 7.4", "value": 4, "unit": "ug/mL"}, {"measurement": "MIC K. pneumoniae NCTC418, […] MH at pH 8.5", "setting": "[9]; CSV, […] MH at pH 8.5", "value": 2, "unit": "ug/mL"}, {"measurement": "MIC K. pneumoniae NCTC418, full MH at pH 7.4", "setting": "[9]; CSV, full MH at pH 7.4", "value": 8, "unit": "ug/mL"}, {"measurement": "MIC K. pneumoniae NCTC418, full MH at pH 8.5", "setting": "[9]; CSV, full MH at pH 8.5", "value": 16, "unit": "ug/mL"}, {"measurement": "MIC K. pneumoniae NCTC418 […] 7.4", "setting": "[9]; Table S2, […] MH, pH 7.4", "value": 4, "unit": "µg/mL"}, {"measurement": "MIC K. pneumoniae NCTC418 […] 8.5", "setting": "[9]; Table S2, […] MH, pH 8.5", "value": 2, "unit": "µg/mL"}, {"measurement": "MIC K. pneumoniae NCTC418 Full MH 7.4", "setting": "[9]; Table S2, full MH, pH 7.4", "value": 8, "unit": "µg/mL"}, {"measurement": "MIC K. pneumoniae NCTC418 Full MH 8.5", "setting": "[9]; Table S2, full MH, pH 8.5", "value": 16, "unit": "µg/mL"}, {"measurement": "MIC K. pneumoniae NCTC418 […]", "setting": "[9]; diluted MH ([…] MH, pH 8.5) per Table 1 footnote b, 16–20 h at 37 °C", "value": 4, "unit": "µg/mL"}, {"measurement": "MIC K. pneumoniae NCTC418 Full", "setting": "[9]; full MH, pH 7.4, 16–20 h at 37 °C", "value": 8, "unit": "µg/mL"}, {"measurement": "MIC P. aeruginosa PA14 2P4, […] MH at pH 8.5", "setting": "[10]; CSV, […] MH at pH 8.5", "value": 4, "unit": "ug/mL"}, {"measurement": "MIC P. aeruginosa PA14 2P4, full MH at pH 7.4", "setting": "[10]; CSV, full MH at pH 7.4", "value": 32, "unit": "ug/mL"}, {"measurement": "MIC PA14 2P4 (pmrB)", "setting": "[10]; MH pH 7.4, 16–20 h at 37 °C", "value": 32, "unit": "µg/mL"}, {"measurement": "MIC P. aeruginosa PA14 2P4", "setting": "[10]; Table S3, […] MH at pH 8.5", "value": 4, "unit": "µg/mL"}, {"measurement": "MIC P. aeruginosa PA14 4.18, […] MH at pH 8.5", "setting": "[11]; CSV, […] MH at pH 8.5", "value": 4, "unit": "ug/mL"}, {"measurement": "MIC P. aeruginosa PA14 4.18, full MH at pH 7.4", "setting": "[11]; CSV, full MH at pH 7.4", "value": 16, "unit": "ug/mL"}, {"measurement": "MIC PA14 4.18 (pmrB)", "setting": "[11]; MH pH 7.4, 16–20 h at 37 °C", "value": 16, "unit": "µg/mL"}, {"measurement": "MIC P. aeruginosa PA14 4.18", "setting": "[11]; Table S3, […] MH at pH 8.5", "value": 4, "unit": "µg/mL"}, {"measurement": "MIC P. aeruginosa ZEM9A, […] MH at pH 8.5", "setting": "[12]", "value": 2, "unit": "ug/mL"}]}
